Results: ChEMBL document CHEMBL1136339, “The C-4 stereochemistry of leucocyanidin substrates for anthocyanidin synthase affects product selectivity” (2003)

Columns and labels:
[1] = Specific activity of 14CO2 formation from 1-[14C]-2OG corrected for uncoupled turnover in presence of anthocyanin synthase(ANS); assay type: functional
[2] = Specific activity of 14CO2 formation from 1-[14C]-2OG in presence of anthocyanin synthase(ANS); assay type: functional

Compound	Specific activity [1] [ukat kg-1]	Specific activity [2] [ukat kg-1]
Oc1cc(O)c2c(c1)O[C@H](c1ccc(O)c(O)c1)[C@@H](O)[C@H]2O	138	181.5
Oc1cc(O)c2c(c1)O[C@H](c1ccc(O)c(O)c1)[C@@H](O)[C@@H]2O	342	385
Oc1cc(O)c2c(c1)O[C@@H](c1ccc(O)c(O)c1)[C@H](O)[C@@H]2O.Oc1cc(O)c2c(c1)O[C@H](c1ccc(O)c(O)c1)[C@@H](O)[C@H]2O (racemic)	41	84.1
Oc1cc(O)c2c(c1)O[C@@H](c1ccc(O)c(O)c1)[C@H](O)[C@H]2O.Oc1cc(O)c2c(c1)O[C@H](c1ccc(O)c(O)c1)[C@@H](O)[C@@H]2O (racemic)	145	188.4
